The source of these data is publication PMC7729733, “Biological Properties of New Chiral 2-Methyl-5,6,7,8-tetrahydroquinolin-8-amine-based Compounds” (Molecules, 2020).

Bounds are passed on as bounds.

Data set [1] has as its system HeLa (human cervix carcinoma cells). In words: Cell growth assay, HeLa cells. It is filed as cell-based. As to conditions: 96 h, racemic compounds, 4 days, Coulter counter. Here is the method:
(§1) HeLa (human cervix carcinoma) and CEM (human T-lymphoblast) were grown in Dulbecco’s modified Eagle’s medium (DMEM; Gibco, Carlsbad, CA, USA), supplemented with 0.01 M Hepes (Gibco) and 1 mM sodium pyruvate (Gibco) in a humidified 5% CO2 incubator at 37 °C. HMEC-1 (human microvascular endothelial cells) was maintained in Dulbecco’s modified Eagle’s medium (DMEM)/low glucose containing glutamine (2 mM). The media were supplemented with 10% fetal bovine serum (FBS, Gibco), penicillin ([…]), streptomycin ([…]), and amphotericin B ([…]). CEM cells were seeded in 96-well plates at 60,000 cells/well in the presence of different concentrations of the compounds, and allowed to proliferate for 72 h. HeLa cells were seeded in 96-well plates at 15,000 cells/well in the presence of different concentrations of the compounds. After 4 days of incubation, the cells were trypsinized and counted. HMEC-1 cells were seeded in 48-well plates at 20,000 cells/well. After 24 h, the compounds were added at different concentrations. The cells were allowed to proliferate for 4 days in the presence of the compounds, trypsinized, and counted. All cells were counted by means of a Coulter counter (Analis, Belgium).

Data set [2] has as its system HMEC-1 (human dermal microvascular endothelial cells). The data set can be described thus: Cell growth assay, HMEC-1 cells. As to conditions: HMEC-1, 96 h, racemic compounds, 4 days, Coulter counter. It counts as cell-based. Here is the method: as §1
The test system of data set [3] is A2780 (ovarian carcinoma). The data set can be described thus: Cell growth assay (Trypan blue), A2780 cells. It counts as cell-based, human. As to conditions: 72 h, Trypan blue. Here is the method: (§2) A2780 (human ovarian carcinoma) and HT-29 (human colorectal adenocarcinoma) were grown in RPMI 1640 (Sigma Chemical Co., St. Louis, MO, USA), and MSTO-211H (human biphasic mesothelioma) were grown in RPMI 1640 (Sigma Chemical Co.) supplemented with 2.38 g/L Hepes, 0.11 g/L pyruvate sodium, and 2.5 g/L glucose. Then, 1.5 g/L NaHCO3, 10% heat-inactivated fetal calf serum (Biowest), 100 U/mL penicillin, 100 μg/mL streptomycin, and 0.25 μg/mL amphotericin B (Sigma Chemical Co.) were added to the media. The cells were cultured at 37 °C in a moist atmosphere of 5% carbon dioxide in air. Cells (2.5–3 × 10^4) were seeded into each well of a 24-well cell culture plate. After incubation for 24 h, various concentrations of the test agents were added to the complete medium and incubated for a further 72 h. A Trypan blue assay was performed to determine cell viability. Cytotoxicity data were expressed as IC50 values, i.e., the concentration of the test compound able to induce a 50% reduction in cell number compared with control cultures.

Data set [4] concerns MSTO-211H (biphasic mesothelioma). The data set can be described thus: Cell growth assay (Trypan blue), MSTO-211H cells. It is filed as cell-based, human. As to conditions: for IC50: 72 h, Trypan blue. Here is the method:
as §2

In data set [5] the test system is HT-29 (colorectal adenocarcinoma). In words: Cell growth assay (Trypan blue), HT-29 cells. It counts as cell-based, human. The note with it: 72 h. Here is the method:
as §2

Data set [6] has as its system CEM (human T-lymphocyte cells). The data set can be described thus: Cell growth assay, CEM cells. It is filed as cell-based. The note with it: racemic compounds, 72 h, Coulter counter. Here is the method: as §1
[7] abbreviates: Homo sapiens, A2780, 72 h, racemic compounds.
Where [8] appears, read: Homo sapiens, MSTO-211H, racemic compounds.
The mark [9] stands for this setting: Homo sapiens, HT-29, racemic compounds.
The mark [10] stands for this setting: Homo sapiens, A2780, 72 h, pure enantiomers.
Where [11] appears, read: Homo sapiens, MSTO-211H, pure enantiomers.
Setting [12] is: Homo sapiens, HT-29, pure enantiomers.

`Cc1ccc(O)c(CNC2CCCc3ccc(C)nc32)c1` (racemic) [Compound 2b, 4-methyl-2-(((2-methyl-5,6,7,8-tetrahydroquinolin-8-yl)amino)methyl)phenol] had a melting point of 89.5 to 90.8 °C. The compound further had an IC50 in data set [1] of 75 ± 11 µM. Besides, the midpoint of inhibition in data set [2], the IC50, lay at 60 ± 2 µM. The same compound had an IC50 in data set [3] (setting [7]) of 25 ± 5 µM. Further, the IC50 in data set [4] (setting [8]) is 35 ± 10 µM. Moreover, the IC50 in data set [5] (setting [9]) worked out at 62 ± 8 µM. Also, the IC50 in data set [6] was determined as 23 ± 4 µM.
`Cc1ccc2c(n1)C(NCc1ncc[nH]1)CCC2` (centres unmarked) [Compound 5b, N-((1H-imidazol-2-yl)methyl)-2-methyl-5,6,7,8-tetrahydroquinolin-8-amine] came in with a melting point of 86.7 to 88.1 °C. This compound also displayed an IC50 in data set [1] of 71 ± 3 µM. Half-maximal inhibition in data set [2] (IC50) was put at 53 µM. In data set [3] (setting [7]), this compound displayed an IC50 of 38 ± 7 µM. In data set [4] (setting [8]), the IC50 was determined as 44 ± 5 µM. For the same compound, in data set [5] (setting [9]), half-maximal inhibition (IC50) required 73 ± 6 µM. Moreover, half-maximal inhibition in data set [6] (IC50) required 51 ± 13 µM.
For the compound `Cc1ccc2c(n1)[C@@H](/N=C/c1ncc[nH]1)CCC2` [(S)-5a, (E)-1-(1H-imidazol-2-yl)-N-(2-methyl-5,6,7,8-tetrahydroquinolin-8-yl)methanimine], the IC50 in data set [3] (pure enantiomers) is 17.2 ± 3 µM; in data set [4] (pure enantiomers) it was over 20 µM; in data set [5] (pure enantiomers) it was over 20 µM. Besides, in data set [4] (pure enantiomers), the “cytotoxic effect on MSTO-211H (in words)” value is listed as “ineffective”.
Consider `Cc1ccc(O)c(CN[C@@H]2CCCc3ccc(C)nc32)c1` [(R)-2b, 4-methyl-2-(((2-methyl-5,6,7,8-tetrahydroquinolin-8-yl)amino)methyl)phenol], for which the IC50 in data set [3] (setting [10]) is 15.2 ± 2.3 µM; in data set [4] (setting [11]) it was over 20 µM; in data set [5] (setting [12]), over 20 µM. Further, the “cytotoxic effect on MSTO-211H (in words)” value in data set [4] (pure enantiomers) is “inactive”.
`Cc1ccc2c(n1)[C@@H](/N=C/c1ccccn1)CCC2` [(S)-3a, (E)-N-(2-methyl-5,6,7,8-tetrahydroquinolin-8-yl)-1-(pyridin-2-yl)methanimine]: the results for the half-inhibitory concentration (IC50) in data set [3] (pure enantiomers), in data set [4] (pure enantiomers) and in data set [5] (pure enantiomers) were 11.4 ± 0.4 µM, 11.8 ± 2.3 µM and over 20 µM, respectively.
In the case of `Cc1ccc2c(n1)C(/N=C/c1ccccn1)CCC2` (racemic) [Compound 3a, (E)-N-(2-methyl-5,6,7,8-tetrahydroquinolin-8-yl)-1-(pyridin-2-yl)methanimine], the melting point lay in the range of 102.8 to 104.3 °C. This compound also showed an IC50 in data set [1] of 34 ± 6 µM. Also, it took 77 ± 32 µM to reach half-maximal inhibition in data set [2] (IC50). In data set [3] (setting [7]), this compound gave an IC50 of 16 ± 2 µM. Also, in data set [4] (setting [8]), half-maximal inhibition (IC50) required 30 ± 8 µM. This compound showed an IC50 in data set [5] (setting [9]) of 42 ± 6 µM. The compound also gave an IC50 in data set [6] of 33 ± 7 µM.
In turn, `Cc1ccc2c(n1)C(/N=C/c1cn(C)cn1)CCC2` (centres unmarked) [Compound 4a, (E)-1-(1-methyl-1H-imidazol-4-yl)-N-(2-methyl-5,6,7,8-tetrahydroquinolin-8-yl)methanimine] gave a melting point of 103.2 to 104.5 °C. For the same compound, the IC50 in data set [1] was over 100 µM. This compound registered an IC50 in data set [2] of over 100 µM. Moreover, the IC50 in data set [3] (setting [7]) amounted to 11 ± 2 µM. In data set [4] (setting [8]), this compound came in with an IC50 of 14 ± 1 µM. Also, the IC50 in data set [5] (setting [9]) is 42 ± 8 µM. The same compound registered an IC50 in data set [6] of over 100 µM.
As for `Cc1ccc(O)c(CN[C@H]2CCCc3ccc(C)nc32)c1` [(S)-2b, 4-methyl-2-(((2-methyl-5,6,7,8-tetrahydroquinolin-8-yl)amino)methyl)phenol], the IC50 in data set [3] (pure enantiomers) is 11.5 ± 2.6 µM; in data set [4] (pure enantiomers), over 20 µM; in data set [5] (pure enantiomers), over 20 µM. Also, in data set [4] (pure enantiomers), the “cytotoxic effect on MSTO-211H (in words)” value was “inactive”.
Compound `Cc1ccc2c(n1)C(NCc1cc3c4c(c1O)CCCN4CCC3)CCC2` (centres unmarked) [Compound 6b, 9-(((2-methyl-5,6,7,8-tetrahydroquinolin-8-yl)amino)methyl)-2,3,6,7-tetrahydro-1H,5H-pyrido[3 ,2,1-ij]quinolin-8-ol] gave a melting point of 94.3 to 95.5 °C. This compound returned an IC50 in data set [1] of over 100 µM. In data set [2], half-maximal inhibition (IC50) was put at 81 ± 26 µM. For the same compound, the IC50 in data set [3] (setting [7]) worked out at 36 ± 4 µM. In addition, in data set [4] (setting [8]), 77 ± 7 µM corresponded to half-maximal inhibition (IC50). Further, the IC50 in data set [5] (setting [9]) worked out at 74 ± 3 µM. The same compound registered a half-inhibitory concentration (IC50) in data set [6] of 77 ± 32 µM.
`Cc1ccc2c(n1)[C@H](/N=C/c1ccccn1)CCC2` [(R)-3a, (E)-N-(2-methyl-5,6,7,8-tetrahydroquinolin-8-yl)-1-(pyridin-2-yl)methanimine]: the values for the IC50 in data set [3] (setting [10]), in data set [4] (setting [11]) and in data set [5] (setting [12]) were 11.7 ± 2 µM, 14.9 ± 1.4 µM and over 20 µM, respectively.
Compound `Cc1ccc(O)c(/C=N/C2CCCc3ccc(C)nc32)c1` (centres unmarked) [Compound 2a, (E)-4-methyl-2-(((2-methyl-5,6,7,8-tetrahydroquinolin-8-yl)imino)methyl)phenol] yielded a melting point of 101.8 to 103.4 °C. Also, in data set [1], the IC50 was over 100 µM. The IC50 in data set [2] was over 100 µM. For the same compound, the IC50 in data set [3] (setting [7]) is over 100 µM. In data set [4] (setting [8]), this compound gave an IC50 of 95 ± 5 µM. In data set [5] (setting [9]), this compound displayed an IC50 of over 100 µM. Moreover, the IC50 in data set [6] is over 100 µM.
As for `Cc1ccc2c(n1)C(/N=C/c1ncc[nH]1)CCC2` (racemic) [Compound 5a, (E)-1-(1H-imidazol-2-yl)-N-(2-methyl-5,6,7,8-tetrahydroquinolin-8-yl)methanimine], the melting point lay within 101.2 to 102.6 °C. The compound also returned an IC50 in data set [1] of 37 ± 9 µM. Further, 57 ± 4 µM corresponded to half-maximal inhibition in data set [2] (IC50). In data set [3] (setting [7]), this compound registered an IC50 of 13 ± 3 µM. The compound also gave an IC50 in data set [4] (setting [8]) of 31 ± 7 µM. The compound also had an IC50 in data set [5] (setting [9]) of 70 ± 2 µM. In data set [6], this compound came in with an IC50 of 43 ± 7 µM.
Consider `Cc1ccc2c(n1)C(NCc1ccccn1)CCC2` (centres unmarked) [Compound 3b, 2-methyl-N-(pyridin-2-ylmethyl)-5,6,7,8-tetrahydroquinolin-8-amine], for which the melting point was in the range of 87.8 to 89.2 °C. Also, the concentration for half-maximal inhibition (IC50) in data set [1] was over 100 µM. Further, in data set [2], the IC50 was over 100 µM. This compound also showed an IC50 in data set [3] (setting [7]) of 11 ± 3 µM. Also, half-maximal inhibition in data set [4] (setting [8]) (IC50) required 15 ± 3 µM. This compound also yielded an IC50 in data set [5] (setting [9]) of 42 ± 6 µM. This compound also returned an IC50 in data set [6] of over 100 µM.
Take `Cc1ccc2c(n1)C(/N=C/c1cccc(C)c1O)CCC2` (centres unmarked) [Compound 1a, (E)-2-methyl-6-(((2-methyl-5,6,7,8-tetrahydroquinolin-8-yl)imino)methyl)phenol]: the melting point fell in the range of 102.2 to 103.8 °C. The compound further yielded an IC50 in data set [1] of over 100 µM. The compound further showed an IC50 in data set [2] of over 100 µM. This compound returned an IC50 in data set [3] (setting [7]) of 65 ± 9 µM. The compound also returned an IC50 in data set [4] (setting [8]) of 69 ± 3 µM. Besides, the IC50 in data set [5] (setting [9]) was 83 ± 5 µM. For the same compound, the IC50 in data set [6] was over 100 µM.
`Cc1ccc2c(n1)C(/N=C/c1cc3c4c(c1O)CCCN4CCC3)CCC2` (centres unmarked) [Compound 6a, (E)-9-(((2-methyl-5,6,7,8-tetrahydroquinolin-8-yl)imino)methyl)-2,3,6,7-tetrahydro-1H,5H-pyrido [3,2,1-ij]quinolin-8-ol] had a melting point of 104.2 to 105.8 °C. The IC50 in data set [1] was over 100 µM. This compound returned an IC50 in data set [2] of 82 ± 4 µM. In data set [3] (setting [7]), this compound came in with an IC50 of 36 ± 4 µM. The same compound came in with an IC50 in data set [4] (setting [8]) of 25 ± 11 µM. In data set [5] (setting [9]), this compound yielded an IC50 of 46 ± 7 µM. The compound also registered an IC50 in data set [6] of 64 ± 32 µM.
In turn, `Cc1ccc2c(n1)C(NCc1cn(C)cn1)CCC2` (centres unmarked) [Compound 4b, 2-methyl-N-((1-methyl-1H-imidazol-4-yl)methyl)-5,6,7,8-tetrahydroquinolin-8-amine] showed a melting point of 90.3 to 92.2 °C. The IC50 in data set [1] was over 100 µM. In addition, the IC50 in data set [2] was 89 ± 2 µM. In data set [3] (setting [7]), the IC50 was over 100 µM. The compound further came in with an IC50 in data set [4] (setting [8]) of over 100 µM. Besides, the IC50 in data set [5] (setting [9]) was over 100 µM. In data set [6], this compound had an IC50 of over 100 µM.
